Earlier results as cited in patent US20100278946A1, “HERBAL COMPOSITIONS COMPRISING PLANT MATERIAL OF ARTEMISIA HERBA-ALBA (ASSO) ASTERACEAE AND/OR EXTRACTS THEREOF” (priority 2007, published 2010).
Where two headings read alike, the source gives them in different places.

Experiments:
[1] = tested on: noncompetitive blocker site of the GABA gated chloride channel
[2] = tested on: gamma-aminobutyric acid (GABA) type A receptor; details: rat dorsal root ganglion neurons
[3] = 2.5 min after administration of alpha-thujone
[4] = 30 min after administration of alpha-thujone, 40-60 mg/kg

Compound: CC1C(=O)CC2(C(C)C)CC12 (stereo not drawn) [Beta-thujone, beta-thujone]
- potency relative to alpha-thujone (fold less potent) ([1]; [3H]EBOB assay): 2.3 fold
- toxicity compared with alpha-thujone (mice; mice (Rice and Wilson, 1976) and Drosophila): less toxic

Compound: CN1C(=O)CN=C(c2ccccc2)c2cc(Cl)ccc21 [diazepam]
- survival of mice given an otherwise lethal dose of alpha-thujone (mice; intraperitoneal administration 15 min before alpha-thujone at 100 mg/kg): almost all of the mice surviving

Compound: CC1C(=O)CC2(C(C)(C)O)CC12 (stereo not drawn) [7-hydroxy-alpha-thujone]
- level in the brain [3]: 29 ppm
- level in the brain [4]: 1.5-8.4 ppm

Compound: CC(C)[C@]12CC(=O)[C@H](C)[C@H]1C2 [alpha-thujone]
- mode of inhibition of EBOB binding [1]: competitive inhibitor
- potency compared with 7-hydroxy-alpha-thujone (fold more potent) ([1]; [3H]EBOB binding assay): 56 fold
- effect on GABA-induced peak currents [2]: suppressed
- time to death after tonic convulsion (mice; mice at the higher dose (60 mg/kg)): ≤ 1 min
- mortality (mice; mice, dose of 30 mg/kg): no death
- mortality (mice; mice, dose of 60 mg/kg): 100%
- i.p. LD50 (mice; mice, i.p.): about 45 mg/kg
- level in the brain [3]: 11 ppm
- level in the brain [4]: 0.3-1.0 ppm
